Among the data in PubChem BioAssay (NCI) are TGI and GI50 values, retold here.

Some test systems named below: HOP-18 NSCLC; KM20L2 colon; M19-MEL melanoma; DLD-1 colon; LXFL 529 NSCLC; SNB-78 CNS; MDA-MB-231 breast; BT-549 breast; DU-145 prostate; MCF7 breast; MDA-MB-435.
Assay in all cases: NCI-60 cell line screen, 48 h

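Each compound was tested at five concentrations against cells in 96-well plates for 48 hours. GI50 is the concentration that inhibits growth by half. TGI is the concentration that stops growth completely.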 Some results are limits rather than exact numbers.

Take `O=C(O)c1ccccc1[Se][Se]c1ccccc1C(=O)O`: the TGI was over 100 µM in the assay on HOP-18 NSCLC, 68.5 µM with KM20L2 colon, over 100 µM in the assay on M19-MEL melanoma and over 100 µM in the assay with DLD-1 colon.

Take `O=CC[C@H]1C(=O)C[C@@H]2CCC[C@@H]21`: the TGI with LXFL 529 NSCLC, in the assay with M19-MEL melanoma and in the assay with SNB-78 CNS was over 100 µM each time.

As to `CO[C@H](C(=O)[C@@H](O)[C@@H](C)O)[C@@H]1Cc2cc3cc(O[C@H]4C[C@@H](O[C@H]5C[C@@H](O)[C@H](O)C(C)O5)[C@H](O)C(C)O4)c(C)c(O)c3c(O)c2C(=O)[C@H]1O[C@H]1C[C@@H](O[C@H]2C[C@@H](O[C@H]3C[C@](C)(O)C(=O)C(C)O3)[C@@H](O)C(C)O2)[C@H](O)C(C)O1` (some centres undefined), the GI50 in the assay with MDA-MB-231 breast was 0.145 µM; with BT-549 breast, 0.0356 µM; in the assay on DU-145 prostate, 0.127 µM; in the assay on MCF7 breast, 0.0208 µM; in the assay with MDA-MB-435, 0.0646 µM. Further, the TGI with MDA-MB-231 breast was 9.97 µM; in the assay on BT-549 breast it was 0.157 µM; in the assay with DU-145 prostate it was over 33.2 µM; in the assay on MCF7 breast, over 33.2 µM; in the assay on MDA-MB-435, 0.252 µM.

As for `Cc1ccc2c(=O)cc(-c3ccc(F)cc3)[nH]c2n1`, the TGI in the assay on MDA-MB-231 breast is over 100 µM; in the assay on BT-549 breast, over 100 µM; in the assay with DU-145 prostate it was over 100 µM; in the assay with MCF7 breast, over 100 µM; in the assay with MDA-MB-435, 22.2 µM. For the same molecule, the GI50 in the assay with MDA-MB-435 is 5.87 µM.

For the molecule `CSc1nc2c(c(=O)[nH]1)N=C1c3ccccc3C(=O)C1C(c1ccccc1)N2` (centres undefined), the GI50 in the assay with MDA-MB-231 breast was 4.09 µM; in the assay with BT-549 breast it was 5.35 µM; in the assay on DU-145 prostate, 13.4 µM; in the assay with MCF7 breast, 2.4 µM; in the assay with MDA-MB-435, 0.494 µM. The TGI in the assay on MDA-MB-231 breast is over 100 µM; in the assay on BT-549 breast, over 100 µM; in the assay on DU-145 prostate it was over 100 µM; with MCF7 breast it was over 100 µM; in the assay on MDA-MB-435, 6.91 µM.

Turning to `CCCCC(=O)OCC(=O)[C@]1(O)Cc2c(O)c3c(c(O)c2[C@@H](OC2CC(NC(=O)C(F)(F)F)C(O)C(C)O2)C1)C(=O)c1c(OC)cccc1C3=O` (some centres undefined), the TGI was over 32.7 µM in the assay with LXFL 529 NSCLC; over 100 µM in the assay on KM20L2 colon; over 100 µM in the assay on MDA-MB-231 breast; 1.9 µM with M19-MEL melanoma; 9.7 µM with BT-549 breast; 13.2 µM with DLD-1 colon. For the same molecule, the TGI with DU-145 prostate is 2.44 µM; in the assay on MDA-MB-435 it was over 100 µM.

`CCN(CCO)CC1CCCC2CCCCC21` (centres undefined): the TGI with MDA-MB-231 breast, with BT-549 breast, in the assay with DU-145 prostate, in the assay on MCF7 breast and with MDA-MB-435 was over 100 µM in each case.

Take `Cc1nc2ccccc2c(N)c1-c1cc(C)c2c(C)nc3ccccc3c2n1`: the GI50 with MDA-MB-231 breast is 0.298 µM; in the assay with BT-549 breast, 1.05 µM; in the assay on DU-145 prostate, 0.479 µM; with MCF7 breast, 0.675 µM; with MDA-MB-435, 1.51 µM. Moreover, the TGI in the assay on MDA-MB-231 breast came to 0.904 µM; with BT-549 breast, 2.46 µM; in the assay on DU-145 prostate it was 1.67 µM; in the assay on MCF7 breast, 2.06 µM; with MDA-MB-435 it was 2.86 µM.

For `N#CCCN(CCC#N)c1ccc(/C=C2\N=C(c3cc([N+](=O)[O-])ccc3Cl)OC2=O)cc1`, the TGI in the assay with LXFL 529 NSCLC was 49.3 µM; with KM20L2 colon, over 100 µM; in the assay on M19-MEL melanoma, 45 µM.

Consider `COc1ccccc1C12OC(=O)C1(C)Oc1ccccc1C2=O` (centres undefined), for which the TGI with LXFL 529 NSCLC, in the assay with KM20L2 colon, with M19-MEL melanoma, in the assay with DLD-1 colon and in the assay with SNB-78 CNS was over 100 µM each time.

On to `NC(Cc1c[nH]c2c(O)cccc12)C(=O)O` (centres undefined), for which the GI50 with MDA-MB-231 breast, in the assay on BT-549 breast, in the assay with DU-145 prostate, in the assay on MCF7 breast and in the assay with MDA-MB-435 was over 100 µM throughout. The TGI with MDA-MB-231 breast, in the assay with BT-549 breast, in the assay with DU-145 prostate, with MCF7 breast and with MDA-MB-435 was over 100 µM each time.

As to `O=C1C=C(Cl)C(=O)C(c2ccc(Cl)cc2)=C1`, the TGI in the assay on MDA-MB-231 breast is 36 µM; with BT-549 breast, 46 µM; in the assay on DU-145 prostate it was 46.5 µM; in the assay on MCF7 breast, 41.6 µM; in the assay on MDA-MB-435, 46.6 µM.

In the case of `O=C1C2C(C(=O)N1OS(=O)(=O)c1ccccc1)N(Cc1ccccc1)C(=O)N2Cc1ccccc1` (centres undefined), the TGI in the assay with LXFL 529 NSCLC, in the assay with KM20L2 colon, in the assay on M19-MEL melanoma, in the assay with DLD-1 colon and with SNB-78 CNS was over 100 µM in each case.

In the case of `COc1cc(-c2nn(-c3ccc(NC(=O)c4ccc(Cl)c(C(F)(F)F)c4)cc3)cc2-c2ccncc2)ccc1Cl`, the GI50 is 1.6 µM in the assay on MDA-MB-231 breast; 3.08 µM in the assay with BT-549 breast; 4.59 µM in the assay on DU-145 prostate; 3.05 µM in the assay with MCF7 breast; 2.41 µM with MDA-MB-435. The TGI was 6.09 µM with MDA-MB-231 breast; 32.5 µM in the assay with BT-549 breast; over 100 µM in the assay with DU-145 prostate; over 100 µM in the assay with MCF7 breast; over 100 µM in the assay with MDA-MB-435.

For `O=C(Nc1ccccc1OC(F)(F)F)Nc1n[nH]c2ccccc12`, the GI50 in the assay on MDA-MB-231 breast is 17.9 µM; with BT-549 breast, 76.4 µM; in the assay on DU-145 prostate, 51.7 µM; with MCF7 breast it was 1.75 µM; in the assay on MDA-MB-435 it was 51.5 µM. The TGI with MDA-MB-231 breast, with BT-549 breast, with DU-145 prostate, in the assay on MCF7 breast and in the assay with MDA-MB-435 was over 100 µM in each case.

As for `N#CC(c1ccc(Cl)cc1)c1cccc(C(C#N)c2ccc(Cl)cc2)n1` (centres undefined), the TGI with LXFL 529 NSCLC, in the assay with KM20L2 colon, in the assay on M19-MEL melanoma, with DLD-1 colon and in the assay with SNB-78 CNS was over 100 µM each time.

As for `O=C(/C=C/C12c3ccccc3C(c3ccccc31)C1C(=O)NC(=O)C12)c1ccncc1` (centres undefined), the GI50 was 3.13 µM with MDA-MB-231 breast; 2.06 µM in the assay on BT-549 breast; 2.8 µM with DU-145 prostate; 2.25 µM in the assay with MCF7 breast; 2.9 µM in the assay on MDA-MB-435. For the same molecule, the TGI in the assay on MDA-MB-231 breast was found to be 12.7 µM; in the assay with BT-549 breast it was 5.93 µM; in the assay with DU-145 prostate it was 11.8 µM; in the assay on MCF7 breast it was 12.6 µM; in the assay with MDA-MB-435, 8.36 µM.
